{"source": "patent EP0012139A1", "about": "“Therapeutic agent for stimulating the immune response in a mammal” (AMERICAN CYANAMID COMPANY, priority 1978, dated 1980)", "key": {"[1]": {"tested_on": "transplantable C3H mammary tumor", "test": "Transplanted C3H mammary tumor growth in mice", "conditions": "for Ave. tumor diameter (mm.^2) (weeks after tumor implantation 3): week 3, untreated control 22; for Ave. tumor diameter (mm.^2) (weeks after tumor implantation 4): week 4, untreated control 73; for Ave. tumor diameter (mm.^2) (weeks after tumor implantation 5): week 5, untreated control 149; for Ave. tumor diameter (mm.^2) (weeks after tumor implantation 6): week 6, untreated control 218; for Ave. tumor diameter (mm.^2) (weeks after tumor implantation 7): week 7, untreated control 316", "description": "C3H/HEB/J male mice were inoculated subcutaneously with five 2 mm. fragments of a transplantable C3H mammary tumor on day zero. Drugs were administered once every 7 days for 5 weeks, starting 14 days after tumor inoculation. When test drug (or the control, Corynebacterium parvum) was administered in combination with Cytoxan, it was given 4 days after the Cytoxan. […] Tumor diameters were measured by means of a Vernier caliper. Test substances were considered active if tumor growth, as indicated by tumor diameter, was inhibited by 50% or more."}, "Rauscher leukemia virus": {"tested_on": "Rauscher leukemia virus", "test": "Antibody response to sheep red blood cells in Rauscher leukemia virus-infected (leukemic) mice, hemagglutinin test", "type": "in vivo, BALB/C mice", "conditions": "for Hemagglutinin Titer* Test 6: infected control 32, non-infected control 2048; for Hemagglutinin Titer* Test 5: infected control 128, non-infected control 4096; for Hemagglutinin Titer* Test 1: reciprocal of serum dilution producing at least 50% agglutination, infected control 8, non-infected control 1024"}, "[2]": {"conditions": "100 mg./kg. orally + Cytoxan 60 mg./kg."}, "[3]": {"conditions": "200 mg./kg. orally + Cytoxan 60 mg./kg."}, "[4]": {"conditions": "300 mg./kg. orally + Cytoxan 60 mg./kg."}, "[5]": {"conditions": "100 mg/kg orally days 6, 7, 8, reciprocal serum dilution, infected control 32, non-infected control 512"}, "[6]": {"conditions": "Cytoxan 60 mg./kg. intraperitoneally alone"}}, "note": "Where a name gives a salt, the structure may show the parent alone.", "data": [{"compound": "CCN(CC)CCOc1ccc2cc3ccc(OCCN(CC)CC)cc3nc2c1.Cl.Cl.Cl", "note": "[3,6-Bis-(2-diethylaminoethoxy)acridine trihydrochloride]", "values": [{"measurement": "Ave. tumor diameter (mm.^2) (weeks after tumor implantation 3)", "setting": "[1]; 100 mg./kg. orally + Cytoxan 60 mg./kg. i.p. (given 4 days after Cytoxan)", "result": 34, "unit": "mm.^2"}, {"measurement": "Ave. tumor diameter (mm.^2) (weeks after tumor implantation 4)", "setting": "[1]; [2]", "result": 53, "unit": "mm.^2"}, {"measurement": "Ave. tumor diameter (mm.^2) (weeks after tumor implantation 5)", "setting": "[1]; [2]", "result": 112, "unit": "mm.^2"}, {"measurement": "Ave. tumor diameter (mm.^2) (weeks after tumor implantation 6)", "setting": "[1]; [2]", "result": 149, "unit": "mm.^2"}, {"measurement": "Ave. tumor diameter (mm.^2) (weeks after tumor implantation 7)", "setting": "[1]; [2]", "result": 107, "unit": "mm.^2"}, {"measurement": "Ave. tumor diameter (mm.^2) (weeks after tumor implantation 3)", "setting": "[1]; 200 mg./kg. orally + Cytoxan 60 mg./kg. i.p. (given 4 days after Cytoxan)", "result": 32, "unit": "mm.^2"}, {"measurement": "Ave. tumor diameter (mm.^2) (weeks after tumor implantation 4)", "setting": "[1]; [3]", "result": 66, "unit": "mm.^2"}, {"measurement": "Ave. tumor diameter (mm.^2) (weeks after tumor implantation 5)", "setting": "[1]; [3]", "result": 82, "unit": "mm.^2"}, {"measurement": "Ave. tumor diameter (mm.^2) (weeks after tumor implantation 6)", "setting": "[1]; [3]", "result": 115, "unit": "mm.^2"}, {"measurement": "Ave. tumor diameter (mm.^2) (weeks after tumor implantation 7)", "setting": "[1]; [3]", "result": 135, "unit": "mm.^2"}, {"measurement": "Ave. tumor diameter (mm.^2) (weeks after tumor implantation 3)", "setting": "[1]; 200 mg./kg. orally alone, once every 7 days", "result": 22, "unit": "mm.^2"}, {"measurement": "Ave. tumor diameter (mm.^2) (weeks after tumor implantation 4)", "setting": "[1]; 200 mg./kg. orally alone", "result": 44, "unit": "mm.^2"}, {"measurement": "Ave. tumor diameter (mm.^2) (weeks after tumor implantation 5)", "setting": "[1]; 200 mg./kg. orally alone", "result": 109, "unit": "mm.^2"}, {"measurement": "Ave. tumor diameter (mm.^2) (weeks after tumor implantation 6)", "setting": "[1]; 200 mg./kg. orally alone", "result": 148, "unit": "mm.^2"}, {"measurement": "Ave. tumor diameter (mm.^2) (weeks after tumor implantation 7)", "setting": "[1]; 200 mg./kg. orally alone", "result": 223, "unit": "mm.^2"}, {"measurement": "Ave. tumor diameter (mm.^2) (weeks after tumor implantation 3)", "setting": "[1]; 300 mg./kg. orally + Cytoxan 60 mg./kg. i.p. (given 4 days after Cytoxan)", "result": 37, "unit": "mm.^2"}, {"measurement": "Ave. tumor diameter (mm.^2) (weeks after tumor implantation 4)", "setting": "[1]; [4]", "result": 71, "unit": "mm.^2"}, {"measurement": "Ave. tumor diameter (mm.^2) (weeks after tumor implantation 5)", "setting": "[1]; [4]", "result": 99, "unit": "mm.^2"}, {"measurement": "Ave. tumor diameter (mm.^2) (weeks after tumor implantation 6)", "setting": "[1]; [4]", "result": 128, "unit": "mm.^2"}, {"measurement": "Ave. tumor diameter (mm.^2) (weeks after tumor implantation 7)", "setting": "[1]; [4]", "result": 160, "unit": "mm.^2"}, {"measurement": "Ave. tumor diameter (mm.^2) (weeks after tumor implantation 3)", "setting": "[1]; 300 mg./kg. orally alone, once every 7 days", "result": 61, "unit": "mm.^2"}, {"measurement": "Ave. tumor diameter (mm.^2) (weeks after tumor implantation 4)", "setting": "[1]; 300 mg./kg. orally alone", "result": 98, "unit": "mm.^2"}, {"measurement": "Ave. tumor diameter (mm.^2) (weeks after tumor implantation 5)", "setting": "[1]; 300 mg./kg. orally alone", "result": 220, "unit": "mm.^2"}, {"measurement": "Ave. tumor diameter (mm.^2) (weeks after tumor implantation 6)", "setting": "[1]; 300 mg./kg. orally alone", "result": 375, "unit": "mm.^2"}, {"measurement": "inhibitory effect on mammary tumor growth compared to the untreated control", "setting": "[1]; administered alone at 300, 200 and 100 mg./kg. every week for 5 weeks", "result": "only the 200 mg./kg. dose level produced an inhibitory effect"}, {"measurement": "tumor growth being inhibited", "setting": "[1]; combined with Cytoxan 60 mg./kg., all dose levels (300, 200, 100 mg./kg.)", "result": "50 - 65%"}, {"measurement": "tumor diameter of treated mice averaging", "setting": "[1]; combined with Cytoxan 60 mg./kg., all dose levels, 316 mm.^2 for the untreated controls", "result": "107 - 160 mm.^2"}, {"measurement": "Hemagglutinin Titer* Test 6", "setting": "Rauscher leukemia virus; 37.5 mg/kg orally days 6, 7, 8, reciprocal serum dilution", "result": 64}, {"measurement": "Hemagglutinin Titer* Test 4", "setting": "Rauscher leukemia virus; 50 mg/kg orally days 6, 7, 8, reciprocal serum dilution, infected control 32, non-infected control 512", "result": 128}, {"measurement": "Hemagglutinin Titer* Test 5", "setting": "Rauscher leukemia virus; 50 mg/kg orally days 6, 7, 8, reciprocal serum dilution", "result": 128}, {"measurement": "Hemagglutinin Titer* Test 6", "setting": "Rauscher leukemia virus; 75 mg/kg orally days 6, 7, 8, reciprocal serum dilution", "result": 128}, {"measurement": "Hemagglutinin Titer* Test 3", "setting": "Rauscher leukemia virus; [5]", "result": 128}, {"measurement": "Hemagglutinin Titer* Test 4", "setting": "Rauscher leukemia virus; [5]", "result": 256}, {"measurement": "Hemagglutinin Titer* Test 5", "setting": "Rauscher leukemia virus; 100 mg/kg orally days 6, 7, 8, reciprocal serum dilution", "result": 512}, {"measurement": "Hemagglutinin Titer* Test 6", "setting": "Rauscher leukemia virus; 150 mg/kg orally days 6, 7, 8, reciprocal serum dilution", "result": 128}, {"measurement": "Hemagglutinin Titer* Test 5", "setting": "Rauscher leukemia virus; 200 mg/kg orally days 6, 7, 8, reciprocal serum dilution", "result": 512}, {"measurement": "Hemagglutinin Titer* Test 6", "setting": "Rauscher leukemia virus; 300 mg/kg orally days 6, 7, 8, reciprocal serum dilution", "result": 128}, {"measurement": "Hemagglutinin Titer* Test 6", "setting": "Rauscher leukemia virus; 600 mg/kg orally days 6, 7, 8, reciprocal serum dilution", "result": 256}]}, {"compound": "O=P1(N(CCCl)CCCl)NCCCO1", "note": "(stereo not drawn) [Cytoxan, reference compound]", "values": [{"measurement": "effect of Cytoxan dose on mammary tumor growth", "setting": "[1]; 60 mg./kg. alone", "result": "ineffective dose"}, {"measurement": "Ave. tumor diameter (mm.^2) (weeks after tumor implantation 3)", "setting": "[1]; Cytoxan 60 mg./kg. intraperitoneally alone, once every 7 days", "result": 47, "unit": "mm.^2"}, {"measurement": "No. Survivors No. Treated", "setting": "[1]; Cytoxan 60 mg./kg. intraperitoneally alone, untreated control 7/8", "result": "6/8"}, {"measurement": "Ave. tumor diameter (mm.^2) (weeks after tumor implantation 4)", "setting": "[1]; [6]", "result": 101, "unit": "mm.^2"}, {"measurement": "Ave. tumor diameter (mm.^2) (weeks after tumor implantation 5)", "setting": "[1]; [6]", "result": 187, "unit": "mm.^2"}, {"measurement": "Ave. tumor diameter (mm.^2) (weeks after tumor implantation 6)", "setting": "[1]; [6]", "result": 277, "unit": "mm.^2"}, {"measurement": "Ave. tumor diameter (mm.^2) (weeks after tumor implantation 7)", "setting": "[1]; [6]", "result": 363, "unit": "mm.^2"}]}, {"compound": "CN(C)C(C)(C)COc1ccc2cc3ccc(OCC(C)(C)N(C)C)cc3nc2c1", "note": "[3,6-Bis-(2-dimethylamino-2-methylpro-poxy)acridine trihydrochloride]", "values": [{"measurement": "Hemagglutinin Titer* Test 1", "setting": "Rauscher leukemia virus; 100 mg/kg orally days 6, 7, 8", "result": 64}]}, {"compound": "CN(C)CCOc1ccc2cc3ccc(OCCN(C)C)cc3nc2c1", "note": "[3,6-Bis-(2-dimethylaminoethoxy)acridine]", "values": [{"measurement": "Hemagglutinin Titer* Test 1", "setting": "Rauscher leukemia virus; 100 mg/kg orally days 6, 7, 8", "result": 128}, {"measurement": "Hemagglutinin Titer* Test 2", "setting": "Rauscher leukemia virus; [5]", "result": 128}]}, {"compound": "CN(C)CCCOc1ccc2cc3ccc(OCCCN(C)C)cc3nc2c1", "note": "[3,6-Bis-(3-dimethylaminopropoxy)acridine]", "values": [{"measurement": "Hemagglutinin Titer* Test 1", "setting": "Rauscher leukemia virus; 100 mg/kg orally days 6, 7, 8", "result": 128}, {"measurement": "Hemagglutinin Titer* Test 2", "setting": "Rauscher leukemia virus; [5]", "result": 128}]}, {"compound": "CCCCN(CCCC)CCOc1ccc2cc3ccc(OCCN(CCCC)CCCC)cc3nc2c1", "note": "[3,6-Bis-(2-di-n-butylaminoethoxy)acri-dine trihydrochloride]", "values": [{"measurement": "Hemagglutinin Titer* Test 1", "setting": "Rauscher leukemia virus; 100 mg/kg orally days 6, 7, 8", "result": 32}]}]}
